Among the test systems are KM12; HOP-62; COLO 205; MOLT-4; SN12C; SK-MEL-2; NCI/ADR-RES; NCI-H460; OVCAR-3; OVCAR-8; SF-295; ACHN; MDA-MB-435; HCT-15; CCRF-CEM; UACC-257; SF-268; MDA-MB-231; OVCAR-5; LOX IMVI.
Assay in all cases: NCI anticancer screen, dose series, 48 h

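Interpolation was linear, between the two tested concentrations surrounding the appropriate level; five concentrations were tested over 48 hours in 96-well plates. At the GI50, growth is halved.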 Active and inactive are the calls of the source. Cut-off read from the data, not from the text of the source: active = GI50 up to about 1.1 µM and inactive = higher.

Take `Cc1ccccc1C(=O)C#Cc1cn(C2CC(O)C(CO)O2)c(=O)[nH]c1=O` (stereo unspecified): the GI50 was > 100 µM (inactive) in the assay on KM12; > 100 µM (inactive) in the assay with HOP-62; > 100 µM (inactive) in the assay with COLO 205; 16.1 µM (inactive) in the assay with MOLT-4; > 100 µM (inactive) in the assay on SN12C; > 100 µM (inactive) with SK-MEL-2. For the same compound, the GI50 with NCI/ADR-RES, in the assay with NCI-H460, in the assay with OVCAR-3, in the assay on OVCAR-8, with SF-295 and with ACHN was > 100 µM (inactive) each time. The GI50 is > 100 µM (inactive) in the assay on MDA-MB-435; over 100 µM in the assay with HCT-15; 20.5 µM (inactive) in the assay with CCRF-CEM; > 100 µM (inactive) with UACC-257; > 100 µM (inactive) with SF-268; > 100 µM (inactive) in the assay on MDA-MB-231.

As to `O=C(O)CCC(NC(=O)c1ccc(CNc2nc3ccccc3nc2C(=O)O)cc1)C(=O)O` (stereo unspecified), the GI50 with KM12, in the assay on HOP-62, in the assay on COLO 205, in the assay on MOLT-4, with OVCAR-5 and with SN12C was > 100 µM (inactive) each time. Further, the GI50 in the assay with SK-MEL-2, with NCI/ADR-RES, in the assay on OVCAR-3, with OVCAR-8, with SF-295 and in the assay with LOX IMVI was > 100 µM (inactive) throughout. Moreover, the GI50 with ACHN is > 100 µM (inactive); in the assay with MDA-MB-435, > 100 µM (inactive); in the assay with HCT-15, over 100 µM; in the assay on CCRF-CEM it was > 100 µM (inactive); in the assay with UACC-257 it was > 100 µM (inactive); in the assay on SF-268 it was > 100 µM (inactive). Besides, the GI50 in the assay with MDA-MB-231 was > 100 µM (inactive).

For `Cc1cc2c(c(C(=O)NCC(=O)N[C@@H](C)C(=O)OCc3ccccc3)c1)Oc1c(cc(C)cc1C(=O)NCC(=O)N[C@@H](C)C(=O)OCc1ccccc1)S2`, the GI50 is > 100 µM (inactive) in the assay on KM12; 71.3 µM (inactive) in the assay with HOP-62; > 100 µM (inactive) in the assay with COLO 205; 78 µM (inactive) with MOLT-4; > 100 µM (inactive) in the assay on OVCAR-5; > 100 µM (inactive) with SN12C. The GI50 was 24.9 µM (inactive) with SK-MEL-2; > 100 µM (inactive) with NCI/ADR-RES; > 100 µM (inactive) with NCI-H460; 22 µM (inactive) in the assay with OVCAR-3; > 100 µM (inactive) in the assay on OVCAR-8; > 100 µM (inactive) in the assay on SF-295. For the same compound, the GI50 is > 100 µM (inactive) in the assay with ACHN; > 100 µM (inactive) with MDA-MB-435; over 100 µM in the assay with HCT-15; > 100 µM (inactive) in the assay on CCRF-CEM; > 100 µM (inactive) with UACC-257; 37.2 µM (inactive) with SF-268. Also, the GI50 in the assay on MDA-MB-231 was 34.4 µM (inactive).

With `Nc1n[n+]([O-])c2ccc(Cl)cc2[n+]1[O-]`, the GI50 in the assay with KM12 is 16.1 µM (inactive); in the assay on HOP-62 it was 11 µM (inactive); in the assay with COLO 205, 12.8 µM (inactive); in the assay with MOLT-4, 14.7 µM (inactive); in the assay on OVCAR-5 it was 25.8 µM (inactive); with SN12C it was 32.1 µM (inactive). Moreover, the GI50 in the assay on SK-MEL-2 was 31.7 µM (inactive); in the assay with NCI/ADR-RES, 36.3 µM (inactive); in the assay on OVCAR-8, > 10 µM (inactive); with SF-295, 23 µM (inactive); in the assay with LOX IMVI it was 25.1 µM (inactive); in the assay with ACHN, 24.2 µM (inactive). In addition, the GI50 in the assay on MDA-MB-435 was 21.4 µM (inactive); with HCT-15, 16.1 µM; in the assay with CCRF-CEM, 22.4 µM (inactive); with UACC-257 it was 17.9 µM (inactive); in the assay on SF-268, 52.1 µM (inactive); with MDA-MB-231, 32 µM (inactive).

As for `CCOC(=O)CSc1nc(-c2ccc(OC)cc2)c(C#N)c(=O)[nH]1`, the GI50 in the assay with KM12, in the assay with HOP-62, in the assay on COLO 205, with MOLT-4, in the assay with OVCAR-5 and with SN12C was > 100 µM (inactive) each time. The GI50 in the assay on SK-MEL-2, in the assay on NCI/ADR-RES, in the assay with NCI-H460, in the assay on OVCAR-3, with OVCAR-8 and with SF-295 was > 100 µM (inactive) each time. Besides, the GI50 in the assay on ACHN is > 100 µM (inactive); in the assay on MDA-MB-435, > 100 µM (inactive); in the assay on HCT-15, over 100 µM; in the assay with CCRF-CEM, > 100 µM (inactive); in the assay on UACC-257, > 100 µM (inactive); in the assay on SF-268, > 100 µM (inactive). Also, the GI50 with MDA-MB-231 was > 100 µM (inactive).

For `COC(=O)C[C@](O)(CCCC(C)(C)O)C(=O)O[C@@H]1C(OC)=C[C@]23CCCN2CCc2cc4c(cc2[C@H]13)OCO4` [OMACETAXINE MEPESUCCINATE], the GI50 is 0.142 µM (active) in the assay on KM12; 0.0597 µM (active) with HOP-62; 0.218 µM (active) in the assay on COLO 205; 0.0123 µM (active) with MOLT-4; 0.494 µM (active) with OVCAR-5; 0.121 µM (active) in the assay on SN12C. The GI50 was 0.259 µM (active) in the assay on SK-MEL-2; 3.87 µM (inactive) in the assay with NCI/ADR-RES; 0.146 µM (active) with OVCAR-8; 0.152 µM (active) in the assay with SF-295; 0.0444 µM (active) in the assay on LOX IMVI; 0.617 µM (active) in the assay with ACHN. The GI50 in the assay on MDA-MB-435 was 4.46 µM (inactive); in the assay on HCT-15, 0.217 µM; in the assay with CCRF-CEM it was 0.0215 µM (active); in the assay with SF-268, 0.149 µM (active); with MDA-MB-231, 1.7 µM (inactive).

As to `CCC(=O)N(c1ccccc1)C(C)CN1CCC(O)(c2cccc(C(F)(F)F)c2)CC1` (stereo unspecified), the GI50 in the assay with KM12 was 35.2 µM (inactive); in the assay with HOP-62 it was 21.5 µM (inactive); in the assay on COLO 205 it was 14.7 µM (inactive); with MOLT-4 it was 17.9 µM (inactive); with OVCAR-5, 22.8 µM (inactive); with SN12C it was 37.9 µM (inactive). For the same compound, the GI50 in the assay with SK-MEL-2 is 20.9 µM (inactive); with NCI/ADR-RES, 19.5 µM (inactive); in the assay on OVCAR-3 it was 45.6 µM (inactive); in the assay with OVCAR-8, 38.1 µM (inactive); with SF-295 it was 35.4 µM (inactive); in the assay with LOX IMVI, 18.9 µM (inactive). The GI50 with ACHN was 36.2 µM (inactive); in the assay with MDA-MB-435, 20.2 µM (inactive); with HCT-15 it was 30.6 µM; in the assay on CCRF-CEM it was 19.9 µM (inactive); in the assay with UACC-257, 17.5 µM (inactive); with MDA-MB-231, 21.6 µM (inactive).

`NC1CC(=O)c2sc(I)cc21` (stereo unspecified): the GI50 with KM12 was > 100 µM (inactive); in the assay with HOP-62, > 100 µM (inactive); in the assay with COLO 205 it was > 100 µM (inactive); in the assay with MOLT-4, 71.9 µM (inactive); with OVCAR-5 it was > 100 µM (inactive); in the assay on SN12C it was > 100 µM (inactive). Further, the GI50 in the assay with SK-MEL-2 is > 100 µM (inactive); with NCI/ADR-RES it was > 100 µM (inactive); in the assay on NCI-H460, 69.8 µM (inactive); in the assay with OVCAR-3, > 100 µM (inactive); in the assay with OVCAR-8 it was > 100 µM (inactive); in the assay with ACHN it was > 100 µM (inactive). Further, the GI50 with MDA-MB-435 is 88.7 µM (inactive); in the assay on HCT-15 it was 35.8 µM; in the assay with CCRF-CEM, 37.4 µM (inactive); with UACC-257, > 100 µM (inactive); in the assay on SF-268, > 100 µM (inactive); in the assay on MDA-MB-231, > 100 µM (inactive).

These data come from ChEMBL document CHEMBL1201862, “PubChem BioAssay data set” (2004).
